For one data set, the system named is MDR-M.tb ATCC 35825. Kind of data set: Broth dilution MIC by turbidometry. It counts as cell-based. The following applies: Mycobacterium tuberculosis, ATCC35825. (Broth dilution looks for growth in wells or tubes with falling amounts of substance.)
Data set [1] is described as follows: Single-dose oral pharmacokinetics in male BALB/c mice. The following applies: mouse, in vivo. The procedure:
Male BALB/c mice aged 8-9 weeks were used for experimentation after a minimum of 3 days of acclimatization.[38]^,[39]^,[40] Fasted animals were administered with DRILS-1398 or DRILS-1398 (F) in a recommended vehicle (1%(v/v) Tween 80 + 99% (v/v) of 0.5% (w/v) Carboxymethylcellulose sodium salt in ultrapure water) by oral route with a dose of 50 mg/kg body weight of DRILS-1398 or 10 mg/kg and 30 mg/kg for DRILS-1398(F) at a dose volume of 10 mL/kg b.w. Under mild isoflurane anesthesia, a blood specimen was collected into pre-labeled tubes containing anticoagulant (K2EDTA - 2 mg/mL blood) during the next 24 hours of post-dose (Table-PK study design chart). The collected blood specimens were centrifuged at 6000 rpm, 4°C for 10 min, and plasma was separated and stored at -80°C until analysis. […] Concentrations of analyte DRILS-1398 in mice plasma samples were determined using the Shimadzu LCMS-8045 LC-MS/MS system. The protocols were approved by the Institutional Animal Ethics Committee of the Preclinical Research Department, Anthem Biosciences Pvt. Ltd., Bangalore 560099, India (Study no for 50mg/kg PK study: N20084, (ABD/IASE/PR/185/19-22) and the study no for PK studies for 10mg/kg and 30mg/kg of DRILS-1398(F): ABD-8056 and ABD-7967A (ABD/IAEC/PR/89-17-20) respectively.

The conditions of data set [2]: microsomes; for Mouse microsomal stability: 3 µM.
The target of another data set is CYP 2C9 (Homo sapiens, UniProt P11712). Kind of data set: biochemical.

Several values for one entry are separate records, joined by “and”; a condition that tells them apart may be missing. Equal entries are not always repeated. Where two headings read alike, the source gives them in different places.

Sequence of CYP 2C9 (P11712 whole entry): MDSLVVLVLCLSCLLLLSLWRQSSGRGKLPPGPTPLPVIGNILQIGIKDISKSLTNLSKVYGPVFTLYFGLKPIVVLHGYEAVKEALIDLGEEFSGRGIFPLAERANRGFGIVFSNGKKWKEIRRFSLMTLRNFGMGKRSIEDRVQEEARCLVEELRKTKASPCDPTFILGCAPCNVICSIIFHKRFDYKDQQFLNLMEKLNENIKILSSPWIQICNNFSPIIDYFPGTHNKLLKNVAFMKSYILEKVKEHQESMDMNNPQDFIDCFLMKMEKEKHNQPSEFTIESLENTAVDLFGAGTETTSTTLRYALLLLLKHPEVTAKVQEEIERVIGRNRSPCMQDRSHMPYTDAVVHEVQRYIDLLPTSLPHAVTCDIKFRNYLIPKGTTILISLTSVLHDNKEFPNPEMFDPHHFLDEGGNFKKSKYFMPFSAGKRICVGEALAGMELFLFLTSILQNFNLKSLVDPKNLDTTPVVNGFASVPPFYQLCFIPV
Protocol for CYP 2C9: This study performed CYP inhibition assay using Vivid CYP P450 (1A2, 2C9, 2C19, 2D6, and 3A4) blue screening kits.[56] […] The fluorescent reading was taken using a microplate reader at excitation/emission wavelengths of 415/460 nm, respectively. The % of CYP inhibition of test/positive control at each tested concentration was calculated, and the IC50 value against each CYP isoform was plotted using Graph pad prism software.

As usually defined, the MIC is the lowest concentration found to suppress growth. A lower MIC goes with a more susceptible organism. Broadly, the AUC(0-inf) is total exposure, with the tail of the curve extrapolated. A high value points to more exposure. As a reminder, the Cmax is the peak of the concentration-time curve. In general, MRT last refers to the average time that molecules of a dose stay in the body. As a reminder, the Tmax is the time at which the peak concentration occurs. As a reminder, the AUC(0-t) is exposure summed from dosing to a finite time, without extrapolation to infinity. By half-life is commonly meant how long it takes for the measured level to halve. A lower half-life goes with rapid decline. As usually defined, the solubility is the dissolved amount per volume that the medium holds. Low values mean little dissolved substance, high ones much dissolved substance. What is called IC50 is the point on the concentration scale where inhibition reaches its midpoint. For `CCCc1nn(C)c2c(-c3c[nH]c4ccc(Cl)cc34)nc(-c3ccc(Cl)cc3)nc12` [DRILS-1398], the MIC in the data set with MDR-M.tb ATCC 35825 is 4 µg/mL and ~10 µM. In data set [1] (male, BALB/c, po, 50 mg/kg), this compound returned an AUC(0-inf) of 21.4 µg·h/mL, an AUCextrap of 10.30%, a Cmax of 1.58 µg/mL and an MRT last of 7.52 h. The time to peak (Tmax) in data set [1] (male, BALB/c, po, 50 mg/kg) worked out at 4 h. Besides, in data set [1] (male, BALB/c, oral 50 mg/kg), the area under the curve AUC(0-t) stood at 19.2 µg·h/mL and the half-life was 6.95 h. Further, the “Adverse clinical signs during PK treatment” value in data set [1] (po, 50 mg/kg) is “did not show any adverse clinical signs”. In addition, in data set [2] (2 min), the Mouse microsomal stability was found to be 56.45%. In data set [2] (5 min), this compound returned a Mouse microsomal stability of 53.42%. Also, in data set [2] (0.25 h), the Mouse microsomal stability is 42.18%. Moreover, the Mouse microsomal stability in data set [2] (0.75 h) stood at 24.61%. In data set [2] (2 h), this compound had a Mouse microsomal stability of 26.57%. Moreover, the “Microsomal stability, verdict” value in data set [2] (mouse) is recorded as “moderately stable”. This compound also displayed a solubility in “physchem” of no less than 50 mg/mL. At CYP 2C9, this compound registered an IC50 of 12.2 µM.

Source of the values: PMC12144419, “Early preclinical development of Mycobacteriumtuberculosis amino acid biosynthesis pathway inhibitor DRILS-1398 as a potential anti-TB drug” (iScience, 2025).
